# Data reported in article PMC12226733, “Evolution of iGluR ligand specificity, polyamine regulation, and ion selectivity inferred from a placozoan epsilon receptor” (Communications Biology, 2025).
# Where “and” joins values, the source holds several entries; their conditions need not be identical. Equal entries are not always repeated. Where two headings read alike, the source gives them in different places.
# Experiments:
# GluA2 D611A + γ2 = target: T1, GluA2 D611A + γ2 (Homo sapiens, UniProt P42262, D611A); assay: outside-out patch clamp, block by intracellular spermine, HEK-293T/17 cells; assay type: biochemical; details: for Normalized conductance (Gnorm) AMPA D611A + γ2 / Normalized current (Inorm) AMPA D611A + γ2: single recordings and AVG
# T1 construct: expressed in transfected cells; host or cells: HEK-293T/17
# Method: (§1) Parallel experiments were carried out in human GluA2 homotetramers bearing equivalent Q/R/N and +4 site mutations to compare the regulation of voltage-dependent polyamine block within the broader context of mammalian receptors. Experimental design remained the same, except for using 10 mM glutamate as the agonist used to evoke membrane currents (Fig. 7a, d, g, and j). […] Their properties were accordingly compared to wildtype GluA2(Q) co-expressed with TARP-γ2.
# (§2) HEK-293T/17 cells (ATCC) were maintained in MEM supplemented with GlutaMAX and 10% fetal bovine serum (FBS) at 37 °C and 5% CO2. […] Transient transfections were carried out 48 h post-plating using the calcium phosphate precipitation method. After 6–8 hours, cells were washed twice with PBS and maintained in fresh medium. Cells transfected with mammalian GluA2 cDNA (plasmid vector described above) were returned to an incubator at 37 °C for 24–48 hours and cells transfected with Epsilon GluE1αA were incubated at 28 °C for 48–72 hours. In cells co-transfected with TARP-γ2, 30 μM NBQX was included in the medium to minimize AMPAR/auxiliary-induced cytotoxicity. All constructs were co-transfected with a plasmid encoding enhanced green fluorescent protein (eGFP) to identify transfected cells. Electrophysiology responses were recorded from outside-out patches excised from transfected cells. Recording pipettes were composed of borosilicate glass (3 to 6 megaohm, King Precision Glass) coated with dental wax to reduce electrical noise. All recordings were performed using Axopatch 200B amplifier (Molecular Devices, LLC). Current records were filtered at 5 or 10 kHz and sampled at 25–50 kHz. Series resistance (3 to 12 megaohms) was compensated by 95%. Recordings were performed at a range of holding potentials from −100 mV to 100 mV to study polyamine block. Data was acquired using pClamp9 software (Molecular Devices, LLC). All experiments were performed at room temperature. All chemicals were purchased from Sigma-Aldrich, unless otherwise indicated. External solution contained (in mM): 150 NaCl, 5 HEPES, 0.1 CaCl2, 0.1 MgCl, and […], pH 7.3–7.4. […] The osmotic pressure of all solutions was adjusted to 295 to 300 mOsm with sucrose. […] Stocks were thawed on the day of the experiment and used to prepared agonist-containing external solutions. Raw data for all electrophysiology experiments are provided in Supplementary Data 3. Current-voltage (I-V) relationships were fit using Origin 7 (OriginLab) using a ninth order polynomial function to estimate the reversal potential (Vrev).
# (§3) Agonist-evoked membrane conductance (G) was calculated using the following equation: G=I/(V−Vrev)
# (§4) Conductance-voltage (G-V) relationships were fit using Origin 7 (OriginLab) with the single permeant blocker model as done previously[46]: G=Gmax/1+[Spm]/Kd Where Gmax is the maximal conductance, [Spm] is the internal Spm concentration, and Kd is the dissociation constant.
# (§5) Kd is defined as: Kd=koff+kperm/kon=sumofexitrates/bindingrate
# (§6) And redefined as: Kd=g*exp(V/h)+L*exp(V/k) Where h and k are voltage dependencies of g and L, respectively, and at 0 mV: g=koff/konandL=kperm/kon
# GluA2 Q607S = target: T2, GluA2 Q607S (Homo sapiens, UniProt P42262, Q607S); assay: as above; assay type: biochemical;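 on Normalized conductance (Gnorm): normalized to each receptor's own maximal conductance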
# T2 construct: host or cells: HEK-293T/17
# Method: as §1, §2, §3, §4, §5, §6
# [1] = GluA2 Q670S, 10 mV, single recordings and AVG
# [2] = GluA2 Q670S, 20 mV, single recordings and AVG
# [3] = GluA2 Q670S, 30 mV, single recordings and AVG
# T2 sequence (P42262 25-883 Q607S): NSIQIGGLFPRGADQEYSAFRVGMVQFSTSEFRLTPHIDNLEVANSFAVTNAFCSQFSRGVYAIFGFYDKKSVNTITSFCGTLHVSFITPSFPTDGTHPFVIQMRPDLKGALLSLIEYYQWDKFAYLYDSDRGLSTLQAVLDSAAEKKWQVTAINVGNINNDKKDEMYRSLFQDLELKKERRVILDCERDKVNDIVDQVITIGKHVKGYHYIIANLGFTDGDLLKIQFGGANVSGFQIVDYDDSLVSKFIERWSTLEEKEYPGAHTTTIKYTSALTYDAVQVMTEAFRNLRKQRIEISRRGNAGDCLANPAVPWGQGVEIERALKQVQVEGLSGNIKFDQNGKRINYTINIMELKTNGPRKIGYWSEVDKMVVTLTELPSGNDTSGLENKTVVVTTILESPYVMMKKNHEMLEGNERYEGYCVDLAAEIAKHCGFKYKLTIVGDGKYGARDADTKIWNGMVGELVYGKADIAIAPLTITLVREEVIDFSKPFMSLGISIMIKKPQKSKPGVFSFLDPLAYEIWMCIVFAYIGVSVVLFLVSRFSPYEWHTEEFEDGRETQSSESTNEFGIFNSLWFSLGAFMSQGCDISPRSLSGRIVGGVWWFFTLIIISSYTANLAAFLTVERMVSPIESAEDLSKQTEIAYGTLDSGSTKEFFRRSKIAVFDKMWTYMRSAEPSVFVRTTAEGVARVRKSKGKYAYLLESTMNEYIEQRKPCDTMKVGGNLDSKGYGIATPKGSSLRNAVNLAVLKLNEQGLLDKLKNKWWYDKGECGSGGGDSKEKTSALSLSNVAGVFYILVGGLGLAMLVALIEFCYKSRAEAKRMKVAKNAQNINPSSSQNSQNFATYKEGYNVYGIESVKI
# T1 sequence (P42262 25-883 D611A): as the sequence (P42262 25-883 Q607S) above, with S583Q, D587A counted along it
# T1 sequence (Q9Y698 whole entry partner): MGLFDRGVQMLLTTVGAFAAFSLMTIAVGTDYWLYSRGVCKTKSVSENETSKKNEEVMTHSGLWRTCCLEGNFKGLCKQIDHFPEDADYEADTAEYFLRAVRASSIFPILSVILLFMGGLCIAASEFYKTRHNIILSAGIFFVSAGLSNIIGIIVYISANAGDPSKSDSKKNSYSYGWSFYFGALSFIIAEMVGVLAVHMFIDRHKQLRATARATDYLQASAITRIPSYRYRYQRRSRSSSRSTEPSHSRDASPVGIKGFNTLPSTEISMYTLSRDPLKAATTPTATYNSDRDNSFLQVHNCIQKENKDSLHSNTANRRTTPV
structure (smiles),measurement,setting,value
NCCCNCCCCNCCCN [spermine],Normalized conductance (Gnorm) AMPA D611A + γ2,GluA2 D611A + γ2; 0 mV,0.81 and 0.75 and 0.86 and 0.99 and 0.85
same,Normalized conductance (Gnorm) AMPA D611A + γ2,GluA2 D611A + γ2; 10 mV,0.83 and 0.76 and 0.89 and 0.84
same,Normalized current (Inorm) AMPA D611A + γ2,GluA2 D611A + γ2; 10 mV,0.05 and 0.0569 and 0.06 and 0.0738
same,Normalized conductance (Gnorm) AMPA D611A + γ2,GluA2 D611A + γ2; 20 mV,0.86 and 0.79 and 0.92 and 0.87
same,Normalized current (Inorm) AMPA D611A + γ2,GluA2 D611A + γ2; 20 mV,0.15 and 0.14 and 0.17
same,Normalized conductance (Gnorm) AMPA D611A + γ2,GluA2 D611A + γ2; 30 mV,0.92 and 0.81 and 0.94 and 0.90
same,Normalized current (Inorm) AMPA D611A + γ2,GluA2 D611A + γ2; 30 mV,0.26 and 0.22 and 0.25 and 0.27
same,Normalized conductance (Gnorm) AMPA D611A + γ2,GluA2 D611A + γ2; 40 mV,0.93 and 0.87 and 0.95 and 0.91
same,Normalized current (Inorm) AMPA D611A + γ2,GluA2 D611A + γ2; 40 mV,0.36 and 0.33 and 0.32 and 0.37 and 0.35
same,Normalized conductance (Gnorm) AMPA D611A + γ2,GluA2 D611A + γ2; 50 mV,0.97 and 0.91 and 0.99 and 0.92 and 0.95
same,Normalized current (Inorm) AMPA D611A + γ2,GluA2 D611A + γ2; 50 mV,0.49 and 0.44 and 0.47 and 0.45 and 0.46
same,Normalized conductance (Gnorm) AMPA D611A + γ2,GluA2 D611A + γ2; 60 mV,0.94 and 0.96 and 0.99
same,Normalized current (Inorm) AMPA D611A + γ2,GluA2 D611A + γ2; 60 mV,0.57 and 0.55 and 0.56
same,Normalized conductance (Gnorm) AMPA D611A + γ2,GluA2 D611A + γ2; 70 mV,0.98 and 1.00 and 0.92 and 0.99 and 0.97
same,Normalized current (Inorm) AMPA D611A + γ2,GluA2 D611A + γ2; 70 mV,0.71 and 0.68 and 0.62 and 0.67
same,Normalized conductance (Gnorm) AMPA D611A + γ2,GluA2 D611A + γ2; 80 mV,0.99 and 0.97 and 1.04 and 1.00
same,Normalized current (Inorm) AMPA D611A + γ2,GluA2 D611A + γ2; 80 mV,0.82 and 0.76 and 0.81 and 0.78 and 0.79
same,Normalized conductance (Gnorm) AMPA D611A + γ2,GluA2 D611A + γ2; 90 mV,1.00 and 0.88 and 0.98 and 0.95
same,Normalized current (Inorm) AMPA D611A + γ2,GluA2 D611A + γ2; 90 mV,0.94 and 0.78 and 0.87 and 0.86
same,Normalized conductance (Gnorm) AMPA D611A + γ2,GluA2 D611A + γ2; 100 mV,0.97 and 0.96 and 1.00 and 0.98
same,Normalized current (Inorm) AMPA D611A + γ2,GluA2 D611A + γ2; 100 mV,1.02 and 0.95 and 0.99
same,Normalized conductance (Gnorm) AMPA D611A + γ2,GluA2 D611A + γ2; -10 mV,0.83 and 0.80 and 0.82 and 0.89
same,Normalized conductance (Gnorm) AMPA D611A + γ2,GluA2 D611A + γ2; -20 mV,0.81 and 0.87 and 0.82 and 0.91 and 0.85
same,Normalized conductance (Gnorm) AMPA D611A + γ2,GluA2 D611A + γ2; -30 mV,0.82 and 0.87 and 0.93 and 0.91 and 0.88
same,Normalized conductance (Gnorm) AMPA D611A + γ2,GluA2 D611A + γ2; -40 mV,0.83 and 0.87 and 0.84 and 0.92
same,Normalized conductance (Gnorm) AMPA D611A + γ2,GluA2 D611A + γ2; -50 mV,0.86 and 0.81 and 1.01 and 0.95 and 0.91
same,Normalized conductance (Gnorm) AMPA D611A + γ2,GluA2 D611A + γ2; -60 mV,0.89 and 0.96 and 0.95 and 0.94
same,Normalized conductance (Gnorm) AMPA D611A + γ2,GluA2 D611A + γ2; -70 mV,0.89 and 0.92 and 0.95 and 0.91
same,Normalized conductance (Gnorm) AMPA D611A + γ2,GluA2 D611A + γ2; -80 mV,0.89 and 0.86 and 0.96 and 0.90
same,Normalized conductance (Gnorm) AMPA D611A + γ2,GluA2 D611A + γ2; -90 mV,0.86 and 0.94 and 0.98 and 0.93
same,Normalized conductance (Gnorm) AMPA D611A + γ2,GluA2 D611A + γ2; -100 mV,0.96 and 0.95 and 0.98
same,Normalized current (Inorm) AMPA D611A + γ2,GluA2 D611A + γ2; -100 mV,-1.00
same,"h, voltage dependency of block onset",GluA2 D611A + γ2; GluA2 D611A + γ2,−58.8 ± 8.8 mV
same,"k, voltage dependency of block relief",GluA2 D611A + γ2; GluA2 D611A + γ2,20.8 ± 3.7 mV
same,Kd,"GluA2 D611A + γ2; GluA2 D611A + γ2, 30 µM internal Spm, 10 mM glutamate, read-out: Kd(0mV)",169 ± 54.6 µM
same,Normalized current (Inorm),GluA2 Q607S,-0.0262
same,"h, voltage dependency of block onset",GluA2 Q607S; GluA2 Q607S,−14.0 ± 2.3 mV
same,"k, voltage dependency of block relief",GluA2 Q607S; GluA2 Q607S,164.4 ± 31.1 mV
same,Kd,"GluA2 Q607S; GluA2 Q607S, 30 µM internal Spm, 10 mM glutamate, read-out: Kd(0mV)",36.2 ± 6.7 µM
same,Normalized conductance (Gnorm),"GluA2 Q607S; GluA2 Q670S, 0 mV, single recording",0.58
same,Normalized conductance (Gnorm),GluA2 Q607S; [1],0.61 and 0.49 and 0.58 and 0.59 and 0.57
same,Normalized current (Inorm),GluA2 Q607S; [1],0.0362 and 0.03 and 0.04 and 0.0351 and 0.0359
same,Normalized conductance (Gnorm),GluA2 Q607S; [2],0.63 and 0.50 and 0.57 and 0.64 and 0.59
same,Normalized current (Inorm),GluA2 Q607S; [2],0.095 and 0.09 and 0.10 and 0.11
same,Normalized conductance (Gnorm),GluA2 Q607S; [3],0.65 and 0.52 and 0.57 and 0.61 and 0.59
same,Normalized current (Inorm),GluA2 Q607S; [3],0.16 and 0.15 and 0.17
same,Normalized conductance (Gnorm),"GluA2 Q607S; GluA2 Q670S, 40 mV, single recordings and AVG",0.67 and 0.55 and 0.57 and 0.65 and 0.61
